For orientation: IC50 means the concentration at which inhibition is half-maximal. High values mean weaker potency, low ones greater potency.

For one assay, the target named is Mk2 (Homo sapiens, UniProt P49137). Nature of the assay: Mk2 kinase inhibition (Table 4 activity data). It is filed as biochemical.
In the next assay the target is T1, CHK-1 (Homo sapiens, UniProt O14757).
T1 sequence (O14757 1-476): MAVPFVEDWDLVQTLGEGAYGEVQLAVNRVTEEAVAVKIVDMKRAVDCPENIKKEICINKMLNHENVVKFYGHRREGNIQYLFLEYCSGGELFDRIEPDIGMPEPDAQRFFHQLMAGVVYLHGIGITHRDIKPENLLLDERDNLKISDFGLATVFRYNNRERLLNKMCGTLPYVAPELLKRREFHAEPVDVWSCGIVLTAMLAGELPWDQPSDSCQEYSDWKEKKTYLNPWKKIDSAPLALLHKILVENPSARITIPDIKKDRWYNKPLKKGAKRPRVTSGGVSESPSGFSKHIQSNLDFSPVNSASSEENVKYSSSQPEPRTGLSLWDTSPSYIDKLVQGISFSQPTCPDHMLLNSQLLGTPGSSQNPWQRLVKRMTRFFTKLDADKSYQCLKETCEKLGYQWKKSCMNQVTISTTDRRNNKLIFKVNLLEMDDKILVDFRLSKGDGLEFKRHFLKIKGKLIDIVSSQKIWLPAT
The experiment in a line: CHK-1 kinase inhibition (Table 4 activity data). The class given is biochemical.

Chain of Mk2 (P49137 whole entry, species assumed): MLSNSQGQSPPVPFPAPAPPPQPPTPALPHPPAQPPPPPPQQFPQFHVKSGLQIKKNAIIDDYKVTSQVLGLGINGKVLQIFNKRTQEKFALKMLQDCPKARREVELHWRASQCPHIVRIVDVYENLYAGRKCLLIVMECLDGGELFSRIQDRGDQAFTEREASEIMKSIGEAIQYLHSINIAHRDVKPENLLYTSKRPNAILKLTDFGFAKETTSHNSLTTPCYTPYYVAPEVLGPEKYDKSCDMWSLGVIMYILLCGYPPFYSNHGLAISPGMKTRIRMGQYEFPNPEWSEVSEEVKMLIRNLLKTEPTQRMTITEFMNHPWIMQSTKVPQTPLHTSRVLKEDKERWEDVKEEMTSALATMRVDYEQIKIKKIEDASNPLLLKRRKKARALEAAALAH

As for `NC(=O)c1cnc(N[C@H]2CCCNC2)c2nc(-c3ccc(Cl)cc3)cn12` [Compound 5], the IC50 against Mk2 was determined as 650 nM; against CHK-1, 39 nM.

Consider `NC(=O)c1cnc(N[C@H]2CC[C@H](N)CC2)c2nc(-c3ccc(Cl)cc3)cn12` [Compound 12], for which the IC50 at Mk2 amounted to 60 nM.

For the compound `NC(=O)c1cccc(-c2cn3c(C(N)=O)cnc(N[C@H]4CCCNC4)c3n2)c1` [Compound 39], the half-maximal inhibitory concentration (IC50) against Mk2 is 810 nM; against CHK-1, 55 nM.

In the case of `N#Cc1cccc(-c2cn3c(C#N)cnc(N[C@H]4CCCNC4)c3n2)c1` [Compound 44], half-maximal inhibition on CHK-1 (IC50) was put at 870 nM.

Values taken from patent US20090175852A1, “IMIDAZOPYRAZINES AS PROTEIN KINASE INHIBITORS” (Schering Corporation, priority 2006, published 2009).
